Experimental data as given in ChEMBL document CHEMBL3217675, “Diaryl ureaLDV peptidomimetics as 41integrin antagonists: synthesis, adhesion inhibition and toxicity evaluation on CCRF-CEM cell line” (Medchemcomm, 2012).
Activity calls are given as the source filed them. The rule behind the calls is not given here.

What was measured:
[1] = molecular target: T1, Integrin alpha-4/beta-1 (Homo sapiens, UniProt P05556+P13612); test: Antagonist activity at integrin alpha4beta1 receptor in human CCRF-CEM cells assessed as inhibition of cell adhesion to fibronectin after 1 hr by calcein AM staining-based fluorescence assay
T1 sequence (P05556 whole entry): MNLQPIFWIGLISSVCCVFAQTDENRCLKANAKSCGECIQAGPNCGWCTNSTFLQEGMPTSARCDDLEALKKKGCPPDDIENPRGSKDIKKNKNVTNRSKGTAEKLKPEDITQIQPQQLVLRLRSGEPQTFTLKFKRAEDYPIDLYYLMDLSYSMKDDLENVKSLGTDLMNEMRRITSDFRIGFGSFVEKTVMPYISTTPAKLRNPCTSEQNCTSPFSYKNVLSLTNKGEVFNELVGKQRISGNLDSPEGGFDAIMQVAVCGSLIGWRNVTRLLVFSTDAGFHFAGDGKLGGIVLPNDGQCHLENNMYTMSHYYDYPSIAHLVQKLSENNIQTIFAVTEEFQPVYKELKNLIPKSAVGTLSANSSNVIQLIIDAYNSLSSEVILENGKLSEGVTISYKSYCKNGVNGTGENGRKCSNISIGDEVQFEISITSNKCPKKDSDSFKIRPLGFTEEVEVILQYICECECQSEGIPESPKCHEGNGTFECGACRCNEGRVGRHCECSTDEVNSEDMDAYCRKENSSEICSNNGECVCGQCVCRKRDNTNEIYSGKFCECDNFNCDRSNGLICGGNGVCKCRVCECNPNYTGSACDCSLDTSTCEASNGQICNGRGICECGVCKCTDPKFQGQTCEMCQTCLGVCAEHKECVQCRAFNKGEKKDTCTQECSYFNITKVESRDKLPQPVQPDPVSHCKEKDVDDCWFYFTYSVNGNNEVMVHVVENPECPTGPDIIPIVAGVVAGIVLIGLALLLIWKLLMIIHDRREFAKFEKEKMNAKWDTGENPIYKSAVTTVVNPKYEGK
T1 sequence (P13612 whole entry): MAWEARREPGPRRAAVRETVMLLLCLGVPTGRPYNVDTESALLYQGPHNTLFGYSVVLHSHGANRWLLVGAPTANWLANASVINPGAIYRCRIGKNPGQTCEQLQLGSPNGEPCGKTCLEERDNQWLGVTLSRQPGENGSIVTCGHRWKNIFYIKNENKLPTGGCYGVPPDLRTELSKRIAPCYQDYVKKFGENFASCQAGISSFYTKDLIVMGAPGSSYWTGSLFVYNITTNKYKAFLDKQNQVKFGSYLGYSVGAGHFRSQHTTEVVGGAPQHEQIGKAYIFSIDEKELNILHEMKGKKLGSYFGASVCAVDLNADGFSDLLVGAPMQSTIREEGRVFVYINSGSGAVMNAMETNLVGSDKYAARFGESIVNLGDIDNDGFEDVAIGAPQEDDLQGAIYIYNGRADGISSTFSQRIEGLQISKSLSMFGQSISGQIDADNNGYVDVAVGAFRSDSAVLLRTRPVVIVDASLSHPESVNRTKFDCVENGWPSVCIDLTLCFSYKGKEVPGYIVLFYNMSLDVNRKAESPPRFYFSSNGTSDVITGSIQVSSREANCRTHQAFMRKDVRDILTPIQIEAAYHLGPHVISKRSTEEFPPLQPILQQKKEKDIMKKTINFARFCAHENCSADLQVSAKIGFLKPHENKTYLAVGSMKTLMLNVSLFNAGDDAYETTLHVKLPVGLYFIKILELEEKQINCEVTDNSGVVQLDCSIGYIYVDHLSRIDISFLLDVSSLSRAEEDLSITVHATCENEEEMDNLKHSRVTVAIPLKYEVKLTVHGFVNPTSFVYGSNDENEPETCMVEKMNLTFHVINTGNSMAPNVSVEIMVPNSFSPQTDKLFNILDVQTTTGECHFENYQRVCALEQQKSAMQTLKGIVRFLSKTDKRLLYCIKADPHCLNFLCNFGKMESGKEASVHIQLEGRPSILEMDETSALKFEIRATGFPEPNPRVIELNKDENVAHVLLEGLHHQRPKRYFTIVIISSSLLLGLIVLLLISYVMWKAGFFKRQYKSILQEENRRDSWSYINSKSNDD

[2] = molecular target: T1, Integrin alpha-4/beta-1; test: Antagonist activity at integrin alpha4beta1 receptor in human CCRF-CEM cells assessed as detachment of adherent cell from fibronectin at 1 to 500 uM after 24 to 48 hrs by MTT assay; format: cell-based
[3] = test system: CCRF-CEM; test: Cytotoxicity against human CCRF-CEM cells assessed as cell viability at 1 to 500 uM after 24 hrs by propidium iodide staining-based flow cytometric analysis
[4] = test system: CCRF-CEM; test: Cytotoxicity against human CCRF-CEM cells assessed as cell viability up to 200 uM after 24 hrs by propidium iodide staining-based flow cytometric analysis

IC50 [1] | Compound | also measured
138 µM | Cc1cccc(C)c1NC(=O)Nc1ccc(CC(=O)Nc2ccc(O)c(CCC(=O)O)c2)cc1 | –
209 µM | O=C(O)CCc1cc(NC(=O)Cc2ccc(NC(=O)Nc3ccccc3C(F)(F)F)cc2)ccc1O | –
> 500 µM | O=C(O)CCc1ccc(NC(=O)Cc2ccc(NC(=O)Nc3ccccc3C(F)(F)F)cc2)cc1O | –
64.6 µM | O=C(O)COc1cc(NC(=O)Cc2ccc(NC(=O)Nc3ccccc3C(F)(F)F)cc2)ccc1CCC(=O)OCc1ccccc1 | Activity [2]: Active; Activity [3]: Non-toxic
> 1000 µM | O=C(O)Cc1ccc(NC(=O)Nc2ccccc2C(F)(F)F)cc1 | –
151 µM | CC(C)(C)OC(=O)COc1ccc(NC(=O)Cc2ccc(NC(=O)Nc3ccccc3C(F)(F)F)cc2)cc1CCC(=O)O | –
97.7 µM | Cc1cccc(C)c1NC(=O)Nc1ccc(CC(=O)Nc2ccc(OCC(=O)O)c(CCC(=O)NCc3ccccc3)c2)cc1 | –
33.1 µM | O=C(O)COc1ccc(NC(=O)Cc2ccc(NC(=O)Nc3ccccc3C(F)(F)F)cc2)cc1CCC(=O)OCc1ccccc1 | Activity [4]: Non-toxic
81.3 µM | Cc1cccc(C)c1NC(=O)Nc1ccc(CC(=O)Nc2ccc(OCC(=O)O)c(CCC(=O)O)c2)cc1 | –
190 µM | Cc1cccc(C)c1NC(=O)Nc1ccc(CC(=O)Nc2ccc(CCC(=O)O)c(OCC(=O)OC(C)(C)C)c2)cc1 | –
146 µM | Cc1cccc(C)c1NC(=O)Nc1ccc(CC(=O)Nc2ccc(CCC(=O)O)c(O)c2)cc1 | –
79.4 µM | CC(C)(C)OC(=O)COc1cc(NC(=O)Cc2ccc(NC(=O)Nc3ccccc3C(F)(F)F)cc2)ccc1CCC(=O)O | –

Further lines, the compound ahead of its results:

Compound | IC50 [1] | also measured
Cc1cccc(C)c1NC(=O)Nc1ccc(CC(=O)Nc2ccc(OCC(=O)OC(C)(C)C)c(CCC(=O)OCc3ccccc3)c2)cc1 | 102 µM | –
Cc1cccc(C)c1NC(=O)Nc1ccc(CC(=O)Nc2ccc(OCC(=O)O)c(CCC(=O)OCc3ccc(Cl)cc3)c2)cc1 | 38.9 µM | –
Cc1cccc(C)c1NC(=O)Nc1ccc(CC(=O)Nc2ccc(CCC(=O)OCc3ccccc3)c(OCC(=O)O)c2)cc1 | 81.3 µM | –
Cc1cccc(C)c1NC(=O)Nc1ccc(CC(=O)Nc2ccc(OCC(=O)O)c(CCC(=O)OCc3ccccc3)c2)cc1 | 24.3 µM | Activity [2]: Active; Activity [4]: Non-toxic; Activity [3]: Non-toxic
N=C(N)NCCC[C@H](NC(=O)CN)C(=O)NCC(=O)N[C@@H](CC(=O)O)C(=O)N[C@@H](CO)C(=O)O | > 1000 µM | –
Cc1cccc(C)c1NC(=O)Nc1ccc(CC(=O)Nc2ccc(OCC(=O)O)c(CCC(=O)NCCc3ccccc3)c2)cc1 | 106 µM | –
Cc1cccc(C)c1NC(=O)Nc1ccc(CC(=O)Nc2ccc(OCC(=O)O)c(CCC(=O)OCCc3ccccc3)c2)cc1 | 24.5 µM | –
Cc1cccc(C)c1NC(=O)Nc1ccc(CC(=O)O)cc1 | > 1000 µM | –
COC(=O)[C@@H](NC(=O)[C@H](CC(=O)O)NC(=O)[C@H](CC(C)C)NC(=O)Cc1ccc(NC(=O)Nc2ccccc2C(F)(F)F)cc1)C(C)C | 703 µM | –
